Data set [1] has as its system HCl-Ethanol inducing gastritis model. The data set is described as follows: HCl-Ethanol inducing gastritis model. The following applies: for Lesion inhibition rate: Table 2, ineffective compounds, dose not given; for ED50: regression analysis, read-out: 50% effective dose (ED50). The data set is classed as in vivo, white rats. As for the experimental part:
After white rats have been fasted for 24 hours, CD-101, CD-102 and CD-103 compound have been orally administered according to method disclosed in Mizui et al., Jap. J. Pharmacol. 33: pp. 939-945 (1983). After 1 hour, 1.5 ml of 60% ethanol including 150 mM HCl has been orally administered to each animal. 1 hour later, animals have been sacrificed by cervical dislocation. After removing the stomach, the stomach has been fixed by injection of 13 ml of 2% formalin for 1 hour. After fixed stomach has been spread out, the lesion area has been measured using the photo by digital camera. Computer program Image J 1.38 (NIH, Bethesda, Md.) has been applied for measuring gastric lesion area (mm^2). The lesion inhibition rate has been calculated according to following equation. Further, 50% effective dose (ED50) has been also calculated using regression analysis.
Lesion inhibition rate(%)={gastric lesion area of control group(mm^2)−gastric lesion area of drug administration group(mm^2)}/gastric lesion area of control group(mm^2)×100

Data set [2] concerns indomethacin inducing stomach ulcer model. The data set is described as follows: indomethacin inducing stomach ulcer model. Type of data set: in vivo, white rats. The following applies: oral; for ED50: regression analysis, read-out: 50% effective dose (ED50). As for the experimental part: After white rats have been fasted for 24 hours, CD-101, CD-102 and CD-103 compound have been orally administered according to method disclosed in Yamasaki et al., Jap. J. Pharmacol. 49: pp. 441-448 (1989). After 1 hour, indomethacin (50 mg/kg) has been orally administered to each animal. After fasting for 5 hours, animals have been sacrificed by cervical dislocation. After removing the stomach, the stomach has been fixed by injection of 13 ml of 2% formalin for 1 hour. After fixed stomach has been spread out, the lesion area has been measured using the photo by digital camera. Computer program Image J 1.38 (NIH, Bethesda, Md.) has been applied for measuring gastric lesion area (mm^2). The lesion inhibition rate and 50% effective dose (ED50) have been calculated as the same manner of HCl-EtOH model.

Data set [3] relates to Chinese hamster lung (CHL) cell. Kind of data set: Chromosomal aberration test. The data set is classed as cell-based. The settings on record: for induction of chromosomal aberration: CHL cell. The text has this:
For measuring the induction of chromosomal aberration, the chromosomal aberration test has been carried out using Chinese hamster lung (CHL) cell. 2 kinds of methods have been adopted, such as, metabolic activation method (+S9) using metabolic activation system and direct method (−S9) without metabolic activation system.
For determining the test material reacting concentration, the cell growth inhibition test has been carried out. The test material has been dissolved and diluted in dimethyl sulfoxide (DMSO). Regardless of metabolic activation system, 12 concentration steps (2.43, 4.87, 9.75, 19.5, 39.1, 78.1, 156.3, 312.5, 625, 1250, 2500, 5000 μg/ml) of test material have been prepared. The cells have been cultured for 24 hours as the same way of main test. […] The medium has been further cultured for 18 hours.
Based upon the data of cell growth inhibition test, maximum concentration has been determined when the cell growth has been inhibited up to 50% as the relative cell numbers.
Regardless of metabolic activation system, the test materials have been prepared after 24 hours from the initiation of test. Then, the number of chromosomal aberration has been counted.

The mark [4] stands for this setting: Rattus norvegicus, oral, dose 1 mg/kg, read-out: Lesion inhibition rate.
Where [5] appears, read: Rattus norvegicus, oral, dose 3 mg/kg, read-out: Lesion inhibition rate.
Where [6] appears, read: Rattus norvegicus, oral, dose 10 mg/kg, read-out: Lesion inhibition rate.
[7] abbreviates: Rattus norvegicus, dose 1 mg/kg, read-out: Lesion inhibition rate.
Where [8] appears, read: Rattus norvegicus, dose 3 mg/kg, read-out: Lesion inhibition rate.
[9] abbreviates: Rattus norvegicus, dose 10 mg/kg, read-out: Lesion inhibition rate.

These results are taken from patent US20150284353A1, “Sesquiterpene lactone-based pharmaceutical composition for treating gastrointestinal diseases” (CHO DANG PHARM. CO., LTD., priority 2012, published 2015).

“Also recorded” adds a separate entry of the source. Marks after values point to notes of the source that are not given here.

For the compound `CN(C)c1ccc(/C=C2\CCOC2=O)cc1`, the Lesion inhibition rate entry in data set [1] is “no effect”.
With `C=C1C(=O)O[C@@H]2[C@@H]3[C@@H](CC[C@@]3(C)O)[C@](C)(OC)CC[C@@H]12` [CD-103], the inhibition at 30 mg/kg in data set [1] (Rattus norvegicus, oral, 30 mg/kg administration group, read-out: lesion inhibition rate) came to 99.5%. Moreover, the figures for the inhibition at 1 mg/kg in data set [1] (setting [4]) and in data set [2] (setting [7]) were 56.9% and 37.9%, respectively. The inhibition at 3 mg/kg in data set [1] (setting [5]) was determined as 66.9%; in data set [2] (setting [8]), 57.3%. Also, the inhibition at 10 mg/kg was determined as 99.5% in data set [1] (setting [6]) and 74% in data set [2] (setting [9]). Besides, the ED50 turned out to be 2.55 mg/kg in data set [1] (Rattus norvegicus, oral) and 2.06 mg/kg in data set [2] (Rattus norvegicus). Also, the Gastric lesion area is recorded as 80.8 ± 19.4* mm^2 in data set [1] (oral, dose 1 mg/kg); 62.1 ± 32.2* mm^2 in data set [1] (oral, dose 3 mg/kg); 1.0 ± 0.4* mm^2 in data set [1] (oral, dose 10 mg/kg); 37.2 ± 7.0 mm^2 in data set [2] (dose 1 mg/kg); 25.6 ± 4.7* mm^2 in data set [2] (dose 3 mg/kg); 15.6 ± 3.1* mm^2 in data set [2] (dose 10 mg/kg). For the same compound, the “Results (chromosomal aberration)” value in data set [3] (+S9, dose 2.5 μg/ml) was “negative”; in data set [3] (+S9, dose 5 μg/ml), “negative”; in data set [3] (+S9, dose 10 μg/ml) it was “negative”; in data set [3] (−S9, dose 0.625 μg/ml) it was “negative”; in data set [3] (−S9, dose 1.25 μg/ml), “negative”; in data set [3] (−S9, dose 2.5 μg/ml), “negative”. Further, in data set [3], the “induction of chromosomal aberration” value is listed as “do not induce the chromosomal aberration”.
Take `CO[C@@]12[C@H](COC(N)=O)C3=C(C(=O)C(C)=C(N)C3=O)N1C[C@@H]1N[C@@H]12` [Mitomycin C, reference compound]: the “Results (chromosomal aberration)” value in data set [3] (−S9, dose 0.5 μg/ml) was “positive”.
On to `CO[C@]1(C)CC[C@H]2C(CN(C)CCO)C(=O)O[C@@H]2[C@@H](O)[C@]2(C)CC[C@H]21` (stereo partly drawn), for which the Lesion inhibition rate entry in data set [1] is listed as “no effect”.
In the case of `C=C1C(=O)O[C@@H]2[C@@H](O)[C@]3(C)CC[C@H]3[C@](C)(OC)CC[C@@H]12` [CD-101], the inhibition at 1 mg/kg in data set [1] (setting [4]) came to 42.3%; in data set [2] (setting [7]) it was 26.9%. In addition, the results for the inhibition at 3 mg/kg in data set [1] (setting [5]) and in data set [2] (setting [8]) were 74.7% and 56.6%, respectively. The inhibition at 10 mg/kg is 91.8% in data set [1] (setting [6]) and 73.1% in data set [2] (setting [9]). Besides, the ED50 worked out at 1.24 ± 0.1 mg/kg in data set [1] (Rattus norvegicus, oral) and 2.78 ± 0.1 mg/kg in data set [2] (Rattus norvegicus). Also, the Gastric lesion area is given as 135.1 ± 43.1 mm^2 in data set [1] (oral, dose 1 mg/kg); 59.3 ± 23.5* mm^2 in data set [1] (oral, dose 3 mg/kg); 19.2 ± 11.7* mm^2 in data set [1] (oral, dose 10 mg/kg); 43.8 ± 7.7 mm^2 in data set [2] (dose 1 mg/kg); 26.0 ± 4.7* mm^2 in data set [2] (dose 3 mg/kg); 16.1 ± 4.8* mm^2 in data set [2] (dose 10 mg/kg). Besides, the “Results (chromosomal aberration)” value in data set [3] (+S9, dose 10 μg/ml) was “negative”; in data set [3] (+S9, dose 20 μg/ml) it was “negative”; in data set [3] (+S9, dose 40 μg/ml), “negative”; in data set [3] (−S9, dose 2.5 μg/ml), “negative”; in data set [3] (−S9, dose 5 μg/ml), “negative”; in data set [3] (−S9, dose 10 μg/ml) it was “negative”. Also, the “induction of chromosomal aberration” value in data set [3] was “neither cytotoxicity nor chromosomal aberration; also recorded: do not induce the chromosomal aberration”.
On to `C=C1CC[C@@H]2[C@](C)(CO)[C@H](O)CC[C@@]2(C)[C@@H]1C/C=C1/C(=O)OC[C@H]1O`, for which the Lesion inhibition rate result in data set [1] was “no effect”.
Take `O=C(NC(Cc1cc(=O)[nH]c2ccccc12)C(=O)O)c1ccc(Cl)cc1` (stereo not drawn) [Rebamipide, reference compound]: the inhibition at 50 mg/kg in data set [1] (Rattus norvegicus, oral, dose 50 mg/kg, read-out: Lesion inhibition rate) stood at 30%; in data set [2] (Rattus norvegicus, dose 50 mg/kg, read-out: Lesion inhibition rate), 49.6%. Further, the Gastric lesion area in data set [1] (oral, dose 50 mg/kg) is reported as 163.9 ± 15.6 mm^2; in data set [2] (dose 50 mg/kg) it was 30.2 ± 6.4* mm^2.
Consider `C=C1C(=O)O[C@@H]2/C=C(\C)CC/C=C(\C)C[C@@H](OC(C)=O)C12` (stereo partly drawn) [reference compound], for which the “Result (chromosomal aberration test)” value in data set [3] (Table 5, + S9) is reported as “positive positive”; in data set [3] (Table 5, − S9), “positive positive”.
Consider `CC(=O)O[C@@H]1/C=C(\C)CCC/C(C)=C/[C@H]2OC(=O)[C@H](CN(C)C)C12` (stereo partly drawn) [reference compound], for which the “Result (chromosomal aberration test)” value in data set [3] (Table 5, + S9) was “positive positive”; in data set [3] (Table 5, − S9) it was “positive positive”.
In the case of `CC(C)=C1C(=O)COC1=O`, the Lesion inhibition rate result in data set [1] is on record as “no effect”.
Turning to `CC1=C2C3OC(=O)[C@@H](C)[C@@H]3CC[C@@]2(C)C=CC1=O` (stereo partly drawn), the Lesion inhibition rate result in data set [1] is “no effect”.
`C=C1C(=O)O[C@@H]2/C=C(\C)CCC(O)C(C)(O)C[C@@H](OC(C)=O)C12` (stereo partly drawn) [reference compound]: the “Result (chromosomal aberration test)” value in data set [3] (Table 5, + S9) is reported as “positive positive”; in data set [3] (Table 5, − S9) it was “positive positive”.
As to `C=C1CC[C@H]2C(=C)C(=O)O[C@@H]2C2[C@H]1CC[C@@]2(C)O` (stereo partly drawn) [CD-102], the inhibition at 1 mg/kg in data set [1] (setting [4]) was determined as 43%; in data set [2] (setting [7]) it was 41.6%. Moreover, the figures for the inhibition at 3 mg/kg in data set [1] (setting [5]) and in data set [2] (setting [8]) were 70.4% and 56.1%, respectively. Besides, the inhibition at 10 mg/kg in data set [1] (setting [6]) was determined as 94.9%; in data set [2] (setting [9]) it was 77.2%. The ED50 is 1.31 mg/kg in data set [1] (Rattus norvegicus, oral) and 1.82 mg/kg in data set [2] (Rattus norvegicus). The Gastric lesion area is 133.5 ± 21.0* mm^2 in data set [1] (oral, dose 1 mg/kg); 69.4 ± 18.4* mm^2 in data set [1] (oral, dose 3 mg/kg); 11.9 ± 10.0* mm^2 in data set [1] (oral, dose 10 mg/kg); 35.0 ± 5.2 mm^2 in data set [2] (dose 1 mg/kg); 26.3 ± 6.8* mm^2 in data set [2] (dose 3 mg/kg); 13.6 ± 2.9* mm^2 in data set [2] (dose 10 mg/kg). In addition, the “Results (chromosomal aberration)” value in data set [3] (+S9, dose 5 μg/ml) is on record as “negative”; in data set [3] (+S9, dose 10 μg/ml) it was “negative”; in data set [3] (+S9, dose 20 μg/ml), “negative”; in data set [3] (−S9, dose 1.25 μg/ml) it was “negative”; in data set [3] (−S9, dose 2.5 μg/ml) it was “negative”; in data set [3] (−S9, dose 5 μg/ml), “negative”. Besides, the “induction of chromosomal aberration” value in data set [3] is given as “do not induce the chromosomal aberration”.
`CO[C@]1(C)CC[C@H]2C(CN(C)CCO)C(=O)O[C@@H]2[C@@H]2[C@H]1CC[C@@]2(C)O` (stereo partly drawn): the Lesion inhibition rate result in data set [1] is “no effect”.
